Assay results published in publication PMC6321301, “Phenolic Composition, Antioxidant Properties, and Inhibition toward Digestive Enzymes with Molecular Docking Analysis of Different Fractions from Prinsepia utilis Royle Fruits” (Molecules, 2018).
Where two headings read alike, the source gives them in different places.

Tests used:
[1] = molecular target: T1, porcine pancreatic lipase (Sus scrofa, UniProt P00591); assay: Pancreatic lipase inhibition; format: biochemical; settings: mean ± SD, n = 3
T1 construct: purchased Sigma (Sigma-Aldrich, Shanghai, China); host or cells: porcine pancreas (natural source)
T1 sequence (P00591 1-450): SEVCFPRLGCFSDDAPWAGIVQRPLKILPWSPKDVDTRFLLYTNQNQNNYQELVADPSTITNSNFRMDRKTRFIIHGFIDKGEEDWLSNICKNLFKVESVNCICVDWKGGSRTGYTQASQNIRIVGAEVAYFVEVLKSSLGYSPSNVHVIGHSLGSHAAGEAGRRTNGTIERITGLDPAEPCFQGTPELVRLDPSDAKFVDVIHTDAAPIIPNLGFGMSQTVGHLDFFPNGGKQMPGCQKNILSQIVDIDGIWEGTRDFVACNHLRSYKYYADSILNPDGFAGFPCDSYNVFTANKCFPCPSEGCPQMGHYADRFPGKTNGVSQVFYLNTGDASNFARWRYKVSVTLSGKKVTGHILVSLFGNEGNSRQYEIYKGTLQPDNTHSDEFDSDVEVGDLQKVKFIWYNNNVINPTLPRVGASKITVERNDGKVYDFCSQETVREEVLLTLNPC
Experimental: (§1) Methanol, acetonitrile, formic acid, and Folin–Ciocalteu reagent were purchased from Merck (Darmstadt, Germany). […] All of the other reagents that were used were of analytical grade.
The inhibitory effects of different fractions from P. utilis fruits, rutin, isorhamnetin-3-O-glucoside, and cyanidin-3-O-glucoside against pancreatic lipase activity were measured according to the method reported earlier. The absorbance (OD) was measured at 400 nm by using a SpectraMax M5 microplate reader. Each test was measured three times.

[2] = molecular target: T2, α-glucosidase from Saccharomyces cerevisiae (Saccharomyces cerevisiae, UniProt P53341); assay: α-Glucosidase inhibition; format: biochemical
T2 construct: purchased Sigma (Sigma-Aldrich, Shanghai, China); host or cells: Saccharomyces cerevisiae (natural source, as named)
Experimental: as §1
The α-glucosidase inhibition activities of different fractions from P. utilis fruits, rutin, and isorhamnetin-3-O-glucoside were evaluated as previously described with some modifications. The absorbance (OD) of the each reaction mixture at 405 nm was recorded by using a SpectraMax M5 microplate reader (Molecular Device, Sunnyvale, CA, USA).

[3] = cited from earlier work
[4] = cited from earlier work; remark: listed apart in the source
[5] = DPPH radical scavenging assay; settings: mean ± SD, n = 3
Experimental: The current result was consistent with many previous studies. Huang et al. reported that the phenolic compounds in P. utilis seeds were responsible for their DPPH radical scavenging activities, regardless of different pretreatments. Zhang et al. also considered phenolics to be the main bioactive substances in Rhus chinensis Mill. fruits to scavenge DPPH radicals.
The antioxidant activities of all of the fractions from P. utilis fruits were determined by DPPH assay according to the methods described earlier. The absorbance of the reaction mixture was recorded by a SpectraMax M5 microplate reader (Molecular Device, Sunnyvale, CA, USA) at 517 nm. The DPPH radical scavenging activity (%) was calculated as [(ODcontrol − ODsample)/ODcontrol] × 100. Each test was measured in triplicate.

[6] = ABTS radical scavenging assay; settings: mean ± SD, n = 3
Source text: Phenolic compounds in P. utilis fruits may be also in charge of the ABTS scavenging capacities, which were confirmed by a high Pearson’s correlation coefficient between the phenolic contents and ABTS radical scavenging ratio (r = 0.889, p < 0.01). Some discrepancies between the IC50 values of DPPH and ABTS assays of the same fraction from P. utilis fruits were observed, which may be due to the different radical structure. Many previous studies also found a similar phenomenon when the DPPH results were compared with the ABTS findings.
The antioxidant activities of all of the fractions from P. utilis fruits were measured by ABTS assay as described earlier. The absorbance of the reaction mixture was determined with a SpectraMax M5 microplate reader at 745 nm. The ABTS radical scavenging activity (%) of each sample was calculated as [(ODcontrol − ODsample)/ODcontrol] × 100. Each test was measured three times.

H2O2-induced HepG2 cells = assay: Inhibition of intracellular ROS in H2O2-induced HepG2 cells (DCFH-DA, flow cytometry); format: cell-based; settings: 8.0 μg/mL, positive control; p < 0.05
Experimental: HepG2 cells were supplied by Kunming cell bank, Chinese Academy of Sciences (Kunming, China), which were cultured in normal Dulbecco’s Modified Eagle Medium (DMEM) medium containing 10% fetal bovine serum (FBS), 1% antibiotic mixture of streptomycin (100 mg/mL) and penicillin (100 U/mL) at 37 °C with a humidified 5% CO2 atmosphere. […] Briefly, cells were seeded on six-well plates at 2.0 × 10^5 cells per well, and incubated for 24 h. […] Then, cells were harvested and washed twice with phosphate buffer solution (PBS). The cells of all of the groups were incubated with 10 μM of DCFH-DA for 20 min, and washed with serum-free medium to remove excess DCFH-DA by centrifuging at 156× g for five minutes. Subsequently, the intracellular ROS of each group was measured by flow cytometry with guava® easyCyte 6-2L (Millipore, Billerica, MA, USA) within 45 min. All of the experiments were measured in triplicate.

α-glucosidase = settings: cited from earlier work

T2 sequence (P53341 whole entry): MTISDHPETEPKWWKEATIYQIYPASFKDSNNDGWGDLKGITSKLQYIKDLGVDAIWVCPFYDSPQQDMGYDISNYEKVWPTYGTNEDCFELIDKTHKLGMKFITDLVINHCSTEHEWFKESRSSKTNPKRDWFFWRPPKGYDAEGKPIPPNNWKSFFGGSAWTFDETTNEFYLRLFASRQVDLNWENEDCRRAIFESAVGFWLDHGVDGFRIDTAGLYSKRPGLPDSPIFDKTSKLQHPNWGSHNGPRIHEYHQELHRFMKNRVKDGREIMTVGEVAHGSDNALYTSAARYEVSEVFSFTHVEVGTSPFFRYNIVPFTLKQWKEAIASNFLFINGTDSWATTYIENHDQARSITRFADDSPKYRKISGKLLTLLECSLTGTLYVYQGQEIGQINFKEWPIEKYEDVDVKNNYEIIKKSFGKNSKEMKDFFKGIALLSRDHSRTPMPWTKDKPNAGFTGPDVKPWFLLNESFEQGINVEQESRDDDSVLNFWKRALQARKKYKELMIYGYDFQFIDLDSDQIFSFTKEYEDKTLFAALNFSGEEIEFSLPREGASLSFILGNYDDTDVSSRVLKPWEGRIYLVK

OC[C@H]1O[C@@H](Oc2cc3c(O)cc(O)cc3[o+]c2-c2ccc(O)c(O)c2)[C@H](O)[C@@H](O)[C@@H]1O [Cyanidin-3-O-glucoside]
pancreatic lipase inhibition IC50 [1]: 249.20 ± 3.87 µg/mL

COc1cc(-c2oc3cc(O)cc(O)c3c(=O)c2O[C@@H]2O[C@H](CO[C@@H]3O[C@@H](C)[C@H](O)[C@@H](O)[C@H]3O)[C@@H](O)[C@H](O)[C@H]2O)ccc1O [Isorhamnetin-3-O-rutinoside]
pancreatic lipase inhibition IC50 [1]: 237.87 ± 8.20 µg/mL
α-glucosidase inhibition IC50 ([2]; mean ± SD, n = 3): 90.19 ± 3.27 µg/mL

C[C@@H]1O[C@@H](OC[C@H]2O[C@@H](Oc3c(-c4ccc(O)c(O)c4)oc4cc(O)cc(O)c4c3=O)[C@H](O)[C@@H](O)[C@@H]2O)[C@H](O)[C@H](O)[C@H]1O [Rutin]
IC50 [1]: 289 µM
IC50 [2]: 208 µM
DPPH radical scavenging IC50 [3]: 29.63 µg/mL
ABTS radical scavenging IC50 [4]: 5.34 µg/mL

O=C1O[C@H]([C@@H](O)CO)C(O)=C1O [Vc, ascorbic acid]
DPPH radical scavenging IC50 [5]: 2.32 ± 0.11 µg/mL
ABTS radical scavenging IC50 [6]: 1.92 ± 0.21 µg/mL
intracellular ROS generation (H2O2-induced HepG2 cells): significantly inhibited intracellular ROS generation

O=C(O[C@@H]1Cc2c(O)cc(O)cc2O[C@H]1c1cc(O)c(O)c(O)c1)c1cc(O)c(O)c(O)c1 [gallocatechin gallate]
manner of α-glucosidase inhibition (α-glucosidase): noncompetitive
α-glucosidase inhibition IC50 (α-glucosidase): 30.02 µg/mL

O=C(CCc1ccc(O)cc1)c1c(O)cc(O)cc1O [phloretin]
α-glucosidase inhibition IC50 (α-glucosidase): 31.26 µg/mL
manner of α-glucosidase inhibition (α-glucosidase; reversible): mixed-type
